These results are taken from patent publication US20220242812A1, “SWELL1-LRRC8 COMPLEX MODULATORS” (Washington University, priority 2019, published 2022).

Assay [1] deals with T1, SWELL1-LRRC8 channel (ICl,SWELL) in HEK-293 cells (Homo sapiens, UniProt Q8IWT6).
T1 construct: endogenous in cells; host or cells: HEK-293 (ATCC CRL-1573)
The assay is described as follows: ICl,SWELL inhibition after hypotonic activation, patch-clamp in HEK-293 cells. It is filed as cell-based. Conditions: HEK-293 cells, hypotonic (210 mOsm), 10 and 7 μM, relative to SN-401. As to the method: Mean presented±SEM. Two-tailed unpaired t-test was used. *, **, and *** represents p<0.05, p<0.01 and p<0.001, respectively.
(§1) Patch-clamp recordings of β-cells and mature adipocytes were performed as described previously (Kang et al., 2018; Zhang et al., 2017). 3T3-F442A WT and KO preadipocytes were prepared as described in the Cell culture section above. For SWELL1 overexpression recordings, preadipocytes were first transduced with Ad5-CAG-LoxP-stop-LoxP-3×Flag-SWELL1 (MOI 12) in 2% FBS culture medium for two days and then overexpression induced by adding Ad5-CMV-Cre-wt-lRES-eGFP (MOI 10-12) in 2% FBS culture medium for two more days and changed to 10% FBS containing culture media and were selected based on GFP expression (˜2-3 days). For cell recordings, islets were transduced with Ad-RIP2-GFP and then dispersed after 48-72 hours for patch-clamp experiments. GFP+ cells marked β-cells selected for patch-clamp recordings. […] Recordings were measured using […] amplifier paired to a Digidata 1550 digitizer using pClamp 10.4 software. The extracellular buffer composition for hypotonic stimulation contains 90 mM NaCl, 2 mM CsCl, 1 mM MgCl, 1 mM CaCb, 10 mM HEPES, 10 mM Mannitol, pH 7.4 with NaOH (210 mOsm/kg). The extracellular isotonic buffer composition is same as above except for Mannitol concentration of 110 mM (300 mOsm/kg). The composition of intracellular buffer is 120 mM L-aspartic acid, 20 mM CsCl, 1 mM MgCl, 5 mM EGTA, 10 mM HEPES, 5 mM MgATP, 120 mM CsOH, 0.1 mM GTP, pH 7.2 with CsOH. All recordings were carried out at room temperature (RT) with HEK-293 cells, β-cells and 3T3-F442A cells performed in whole-cell configuration and human adipocytes in perforated-patch configuration, as previously described (Kang et al., 2018; Zhang et al., 2017).

In assay [2] the target is T2, closed SWELL1-LRRC8 channel in HEK-293 cells (Homo sapiens, UniProt Q8IWT6).
T2 construct: endogenous in cells; host or cells: HEK-293 (ATCC CRL-1573)
Nature of the assay: ICl,SWELL inhibition on application to the closed SWELL1-LRRC8 channel (30 min preincubation), HEK-293 cells. It is filed as cell-based. Conditions: 1 μM, 30 minutes prior to hypotonic activation. As to the method:
as §1

The target in assay [3] is T3, SWELL1 protein (Mus musculus, UniProt Q80WG5). Conditions: 3T3-F442A adipocytes, 1 and 10 μM, 4 days.
For assay [4], the target named is T3, SWELL1 protein. Nature of the assay: Glucolipotoxic stress (palmitate + glucose) SWELL1 protein in 3T3-F442A adipocytes. Conditions: 10 μM 96 h, 1 mM palmitate + 25 mM glucose.
In assay [5] the test system is HFD-induced T2D mice. Nature of the assay: Metabolic phenotyping (fasting glucose, GTT, ITT) in HFD-fed T2D mice. It is filed as in vivo. Conditions: HFD 8 weeks, 5 mg/kg/day x 4 days, compared to SN071. As for the experimental part: (§2) All compounds were dissolved in Kolliphor® EL (Sigma, #C5135).
Mice were fasted for 6 h prior to glucose tolerance tests (GTT). Baseline glucose levels at 0 min timepoint (fasting glucose, FG) were measured from blood sample collected from tail snipping using glucometer (Bayer Healthcare LLC). Either 1 g or 0.75 g D-Glucose/kg body weight were injected (i.p.) for lean or HFD mice, respectively and glucose levels were measured at 7, 15, 30, 60, 90 and 120 min timepoints after injection. For insulin tolerance tests (ITTs), the mice were fasted for 4 h. […] All mice and treatment groups were assessed blindly while performing experiments.

Assay [6] concerns the target ICl,SWELL (SWELL1 channel) (Homo sapiens, UniProt Q8IWT6). The assay is described as follows: Patch-clamp screening of Smod compounds for ICl,SWELL inhibitory activity. It is filed as cell-based. Conditions: preliminary patch-clamp experiments, in words. From the text:
FIG. 2. Patch-clamp screening of Smod compounds for ICL,SWELL inhibitory activity.
FIG. 3. Patch-clamp screening of Smod compounds for ICL,SWELL inhibitory activity.
A series of compounds (Smod compounds) were synthesized to evaluate the role of a butyrate side chain and aryl substituents on activity (see FIG. 1 and Table 1 below). In preliminary patch-clamp experiments to screen for compounds that preserve or enhance SWELL1 modulatory activity, unique structural derivatives were identified with ICl,SWELL inhibitory activity (Smod 2-6, FIGS. 2, 3, and 12-16, as well as Table 1 below). […] In vitro channel inhibitory activity was also maintained with Smod3-5 (FIG. 3). Note that compounds were also identified that lack activity, and therefore are not SWELL1 modulators (i.e., Snot1, FIGS. 2A and 3A). FIG. 4 summarizes three dose response curves of isolated enantiomers of Smod1 (+ and −) compared to Smod3. […] FIG. 5 summarizes the synthetic scheme used to generate these compounds.
Background: In patch-clamp work, channel activity is measured electrically.

Assay [7] has as its system polygenic T2D KKAy mice. Nature of the assay: Metabolic phenotyping (fasting glucose, GTT, ITT) in polygenic T2D KKAy mice. It is filed as in vivo. Conditions: T2D KKAy mice, 5 mg/kg i.p. 4 days, compared to SN071.
Description: All C57BL/6 mice involved in study were purchased from Charles River Labs. Both KK.Cg-Ay/J (KKN) and KK.Cg-Aa/J (KKAa) mice involved in study were gender and age-matched mice obtained from Jackson Labs (Stock No: 002468) and bred up for experiments. The mice were fed ad libitum with either regular chow (RC) or high-fat diet (Research Diets, Inc., 60 kcal % fat) with free access to water and housed in a light-, temperature- and humidity-controlled room. For high-fat diet (HFD) studies, only male mice were used and were started on HFD regimen at the age of 6-9 weeks. For all experiments involving KKN and KKAa mice, both males and females were used at approximately 50/50 ratio. In all experiments involving mice, investigators were kept blinded both during the experiments and subsequent analysis.
as §2
Mice were fasted for 6 h prior to glucose tolerance tests (GTT). Baseline glucose levels at 0 min timepoint (fasting glucose, FG) were measured from blood sample collected from tail snipping using glucometer (Bayer Healthcare LLC). Either 1 g or 0.75 g D-Glucose/kg body weight were injected (i.p.) for lean or HFD mice, respectively and glucose levels were measured at 7, 15, 30, 60, 90 and 120 min timepoints after injection. For insulin tolerance tests (ITTs), the mice were fasted for 4 h. Similar to GTTs, the baseline blood glucose levels were measured at 0 min timepoint and 15, 30, 60, 90 and 120 min timepoints post-injection (i.p.) of insulin (HumulinR, 1 U/kg body weight for lean mice or 1.25 U/kg body weight for HFD mice). […] The collected plasma was then measured for insulin content by using Ultra-Sensitive Mouse Insulin ELISA Kit (Crystal Chem, #90080). All mice and treatment groups were assessed blindly while performing experiments.

Assay [8] has as its system islets, glucose-stimulated insulin secretion. The assay is described as follows: Islet perifusion GSIS assay, islets from treated T2D mice. It is filed as in vivo. Conditions: islets of T2D KKAy mice, compared to SN071. As for the experimental part:
For patch-clamp studies involving primary mouse cells, the mice were anesthesized by injecting Avertin (0.0125 g/ml in H2O) followed by cervical dislocation. […] Perifusion buffer contained (in mM): 120 NaCl, 24 NaHCO3, 4.8 KCl, 2.5 CaCl, 1.2 MgSO4, 10 HEPES, 2.8 glucose, 27.2 mannitol, 0.25% w/v bovine serum albumin, pH 7.4 with NaOH (300 mOsm/kg). Perifusion buffer kept at 37° C. was circulated at 120 μI/min After 48 min of washing with 2.8 mM glucose solution for stabilization, islets were stimulated with the following sequence: 16 min of 16.7 mM glucose, 40 min of 2.8 mM glucose, 10 min of 30 mM KCl, and 12 min of 2.8 mM glucose. Osmolarity was matched by adjusting mannitol concentration when preparing solution containing 16.7 mM glucose. Serial samples were collected either every 1 or 2 min into 96 wells kept at 4° C. Insulin concentrations were further determined using commercially available ELISA kit (Mercodia). The area under the curve (AUC) for the high-glucose induced insulin release was calculated for time points between 50 to 74/84 min. At the completion of the experiments, islets were further lysed by addition of RIPA buffer and the amount of insulin was detected by ELISA.

Assay [9] concerns HFD T2D mice. Nature of the assay: Glucose tolerance and fasting glucose in HFD T2D mice (Smod compounds, Example 2). It is filed as in vivo. As for the experimental part:
FIG. 7. Representative glucose tolerance test data, area under curve (AUC) and fasting glucose for mice treated with a vehicle, and 5 mg/kg/day Smod3 or Snot1 for 5 days. Smod3, but not Snot1 improves glucose tolerance (as measured by are under the curve, AUC), and fasting glucose in HFD T2D mice. N=5 mice in each group. *p<0.05, ** p<0.01, *** p<0.001.
FIG. 8. Glucose Tolerance of obese T2D mice (16 weeks HFD): Pre-Smod6 (black circles), after Smod6 (5 mg/kg i.p.×5 days, pink triangles), 4 weeks after i.p. vehicle injection (blue diamonds), and 4 weeks after discontinuing Smod6 (maroon squares).
FIG. 9. Glucose Tolerance of obese T2D mice (16 weeks HFD): 4 weeks after i.p. vehicle injection (black circles), 4 weeks after Snot1 (5 mg/kg i.p.×5 days, blue squares), and 4 weeks after Smod6 (5 mg/kg i.p.×5 days, maroon triangles).
Moreover, Smod3, and not Snot1 (5 mg/kg i.p.×[…]) improve glucose tolerance (GTT, Area under the curve) and fasting glucose (FG) in mice raised on HFD for 8 weeks in pilot studies (FIG. 7).

Where [10] appears, read: mice on HFD 8 weeks, 5 mg/kg i.p. x 4 days (FIG. 7 legend: 5 days), listed as Smod3, 5 mg/kg.

Entries after “also recorded” stand apart in the source; their conditions may differ.

Turning to `O=C(O)CCCOc1cc2c(c(Cl)c1Cl)C(=O)C(C1CCCC1)C2` (centres unmarked) [UIPC-III-083B, 4-((6,7-dichloro-2-cyclopentyl-1-oxo-2,3-dihydro-1H-inden-5-yl)oxy)butanoic acid], the “On-target inhibition of ICl,SWELL” value in assay [1] (listed as SN072) was “entirely eliminated; also recorded: eliminate ICl,SWELL inhibitory activity”. For the same compound, in assay [2], the “Subsequent hypotonic SWELL1-LRRC8 activation” value is “inactive”. Further, the “SWELL1 protein level relative to vehicle-treated controls” value in assay [3] is “do not significantly increase”. For the same compound, the “Prevention of palmitate/glucose-induced SWELL1 protein reduction” value in [4] is recorded as “not”.
On to `CCCCC1(C2CCCC2)Cc2cc(OCC(=O)O)c(Cl)c(Cl)c2C1=O` (centres unmarked) [SN071, 2-((2-butyl-6,7-dichloro-2-cyclopentyl-1-oxo-2,3-dihydro-1H-inden-5-yl)oxy)acetic acid], for which the “On-target inhibition of ICl,SWELL” value in assay [1] is “eliminate ICl,SWELL inhibitory activity”; in assay [1] (listed as S1\1071), “entirely eliminated”. In addition, the “Subsequent hypotonic SWELL1-LRRC8 activation” value in [2] is “inactive”. The “SWELL1 protein level relative to vehicle-treated controls” value in [3] is given as “do not significantly increase”.
Turning to `CCCCC1(C2CCCC2)Cc2cc(OCCCCC(=O)O)c(Cl)c(Cl)c2C1=O` (centres unmarked) [SN-403, 5-((2-butyl-6,7-dichloro-2-cyclopentyl-1-oxo-2,3-dihydro-1H-inden-5-yl)oxy)pentanoic acid], the “On-target inhibition of ICl,SWELL” value in assay [1] is “maintained or enhanced”. Further, in [5], the Fasting blood glucose entry was “significantly reduced” and the Glucose tolerance result is recorded as “improved”.
As for `CCCCC1(C2CCCC2)Cc2cc(OCCCC(=O)O)c(C)c(C)c2C1=O` (racemic) [UIPC-II-187B], the “ICl,SWELL inhibitory activity” value in [6] (listed as Smod5) was “did not significantly alter activity; also recorded: maintaining activity”.
Take `CCCCC1(C2CCCC2)Cc2cc(OCCCCCCC(=O)O)c(Cl)c(Cl)c2C1=O` (centres unmarked) [SN-407, 7-((2-butyl-6,7-dichloro-2-cyclopentyl-1-oxo-2,3-dihydro-1H-inden-5-yl)oxy)heptanoic acid]: the “On-target inhibition of ICl,SWELL” value in [1] was “maintained or enhanced; also recorded: increase”. Moreover, the “Glucose tolerance based on the GTT AUC” value in assay [7] is given as “improved”. For the same compound, in assay [8], the GSIS result was “increased”.
As for `CCCCC1(C2CCCC2)Cc2cc(OCCCN(C)C)c(Cl)c(Cl)c2C1=O.Cl` (racemic) [UICK-IV-105b], the “ICl,SWELL inhibitory activity” value in assay [6] (listed as Smod2) was “active; also recorded: maintaining activity”.
Consider `CCCCC1(C2CCCC2)Cc2cc(OCCCCC(=O)O)c(Cl)c(Cl)c2C1=O` (racemic) [UICK-IV-119], for which, in [6] (listed as Smod3), the “ICl,SWELL inhibitory activity” value is “maintaining and augmenting activity”. Also, in assay [9] (setting [10]), the “Fasting glucose (FG)” value is on record as “improves” and the “Glucose tolerance (GTT, area under the curve)” value was “improves”.
`CCCCC1(C2CCCC2)Cc2cc(OC/C=C/C(=O)O)c(Cl)c(Cl)c2C1=O` (racemic) [UIPC-II-179]: the “ICl,SWELL inhibitory activity” value in assay [6] is “maintaining activity”.
As to `CCCCC1(C2CCCC2)Cc2cc(OCC(=O)O)c(Cl)c(Cl)c2C1=O` (centres unmarked) [UICK-IV-101a], in assay [6] (listed as Snot1), the “ICl,SWELL inhibitory activity” value is “lack activity; also recorded: lacking ICl,SWELL inhibitory activity”. For the same compound, the “Glucose tolerance (GTT, area under the curve)” value in [9] (mice on HFD 8 weeks, 5 mg/kg i.p. x 4 days (FIG. 7 legend: 5 days)) was “not”.
Take `CCCCC1(C2CCCC2)Cc2cc(OCCCCCC(=O)O)c(Cl)c(Cl)c2C1=O` (racemic) [UIPC-III-045B]: the “Glucose tolerance 4 weeks after discontinuing treatment” value in assay [9] (T2D HFD fed mice, 5 mg/kg i.p. x 5 days, after 20 weeks HFD) was “sustain improved glucose tolerance”.
